Consider five compounds from patent US9096532B2, “Pyrazole inhibitors of COX-2 and sEH” (The Regents of the University of California, priority 2010, dated 2015).

Entries after “also recorded” stand apart in the source; their conditions may differ.

As usually defined, the inhibition is the share of the control response that was lost under treatment. Broadly, the EC50 is the concentration giving half of the maximal effect. A low value points to greater potency. The IC50 is the concentration needed to halve the response being measured. What is called AUC is the area under the concentration-time curve, a measure of exposure. By Cmax is commonly meant the highest concentration seen after dosing. The term Tmax denotes the time at which the peak concentration occurs. The half-life is the time needed for the level to fall by half in the phase considered. Low values mean rapid decline, high ones slow decline.

One data set concerns the target T1, human recombinant COX-2 (Homo sapiens, UniProt P35354).
T1 construct: purchased Cayman Chemical 700100
T1 sequence (P35354 18-604): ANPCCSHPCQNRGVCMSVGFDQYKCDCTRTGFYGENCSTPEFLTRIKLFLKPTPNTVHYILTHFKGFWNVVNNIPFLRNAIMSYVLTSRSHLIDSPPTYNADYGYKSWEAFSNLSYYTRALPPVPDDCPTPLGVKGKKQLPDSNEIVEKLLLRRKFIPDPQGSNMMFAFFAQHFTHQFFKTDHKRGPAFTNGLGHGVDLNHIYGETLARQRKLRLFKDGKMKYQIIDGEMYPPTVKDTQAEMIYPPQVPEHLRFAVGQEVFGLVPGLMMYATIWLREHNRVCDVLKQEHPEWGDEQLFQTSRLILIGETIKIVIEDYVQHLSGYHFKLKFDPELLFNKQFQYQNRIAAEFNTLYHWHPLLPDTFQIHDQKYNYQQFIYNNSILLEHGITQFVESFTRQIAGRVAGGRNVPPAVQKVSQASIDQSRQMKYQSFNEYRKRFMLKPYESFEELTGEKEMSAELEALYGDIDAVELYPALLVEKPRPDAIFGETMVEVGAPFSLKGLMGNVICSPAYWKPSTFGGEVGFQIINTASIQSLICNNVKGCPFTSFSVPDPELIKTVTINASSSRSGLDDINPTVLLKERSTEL
Nature of the data set: Cyclooxygenase inhibition assay (COX Fluorescent Inhibitor Screening Assay Kit), COX-2. The data set is classed as biochemical. Here is the method:
(§1) Stock solutions of test compounds are dissolved in a minimum volume of DMSO. 10 μl of various concentrations of the test compound solutions, e.g., [I]final between 0.01 and 100 μM, are added to a series of supplied reaction buffer solutions (150 μl, 100 mM Tris-HCl, pH 8.0) with either COX-1 or COX-2 (10 μl) enzyme in the presence of Heme (10 μl) and a fluorometric substrate (10 μl). The reactions are initiated by quickly adding 10 μl of arachidonic acid solution and then incubating the system for two minutes at room temperature. […] The intensity of this fluorescence is proportional to the amount of resorufin, which is proportional to the amount of PGG2 present in the well during the incubation. Percent inhibition is calculated by comparison from the 100% initial activity sample value (no inhibitor).
as §1, with “compounds were” for “compounds are”, “μM, were” for “μM, are”, “reactions were” for “reactions are”, “then incubated” for “then incubating the system”, “inhibition was” for “inhibition is”

The target in another data set is T2, ovine COX-1 (Ovis aries, UniProt P05979).
T2 construct: purchased Cayman Chemical 700100
T2 sequence (P05979 25-600): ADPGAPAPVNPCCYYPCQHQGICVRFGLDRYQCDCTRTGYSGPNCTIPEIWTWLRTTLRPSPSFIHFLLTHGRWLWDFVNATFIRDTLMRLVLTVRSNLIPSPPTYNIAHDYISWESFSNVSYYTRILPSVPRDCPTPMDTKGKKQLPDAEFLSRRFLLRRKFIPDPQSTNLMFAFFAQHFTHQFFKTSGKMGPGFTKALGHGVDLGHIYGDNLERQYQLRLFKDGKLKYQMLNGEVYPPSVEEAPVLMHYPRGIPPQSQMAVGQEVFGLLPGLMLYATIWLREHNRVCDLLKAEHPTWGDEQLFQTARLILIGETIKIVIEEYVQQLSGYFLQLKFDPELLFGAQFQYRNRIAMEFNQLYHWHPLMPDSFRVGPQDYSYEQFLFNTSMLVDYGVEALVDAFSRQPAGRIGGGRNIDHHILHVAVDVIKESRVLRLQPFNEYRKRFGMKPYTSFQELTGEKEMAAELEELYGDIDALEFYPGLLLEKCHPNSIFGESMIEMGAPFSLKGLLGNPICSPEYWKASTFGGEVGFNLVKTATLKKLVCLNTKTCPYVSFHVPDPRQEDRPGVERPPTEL
Put plainly: Cyclooxygenase inhibition assay (COX Fluorescent Inhibitor Screening Assay Kit), COX-1. As to conditions: for inhibition at 100 µM: read-out: COX-1 (% inhibition). In kind it is biochemical. The protocol:
as §1
as §1, with “compounds were” for “compounds are”, “μM, were” for “μM, are”, “reactions were” for “reactions are”, “then incubated” for “then incubating the system”, “inhibition was” for “inhibition is”

A further data set concerns the target T3, human sEH (Homo sapiens, UniProt P34913).
T3 sequence (P34913 1-555): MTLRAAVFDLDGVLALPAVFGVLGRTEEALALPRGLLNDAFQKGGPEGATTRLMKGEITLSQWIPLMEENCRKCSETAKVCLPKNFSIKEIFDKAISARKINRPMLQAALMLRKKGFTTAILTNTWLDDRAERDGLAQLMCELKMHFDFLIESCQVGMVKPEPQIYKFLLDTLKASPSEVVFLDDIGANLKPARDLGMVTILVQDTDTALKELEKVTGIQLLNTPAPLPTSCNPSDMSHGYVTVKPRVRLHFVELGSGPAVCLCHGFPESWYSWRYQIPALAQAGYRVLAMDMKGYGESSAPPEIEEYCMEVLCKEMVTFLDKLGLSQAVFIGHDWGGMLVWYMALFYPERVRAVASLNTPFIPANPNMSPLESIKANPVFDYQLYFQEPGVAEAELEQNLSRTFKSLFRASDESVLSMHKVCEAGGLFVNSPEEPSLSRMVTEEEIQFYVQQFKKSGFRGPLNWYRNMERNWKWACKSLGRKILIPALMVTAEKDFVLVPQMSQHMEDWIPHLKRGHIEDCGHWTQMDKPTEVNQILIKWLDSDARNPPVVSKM
Nature of the data set: sEH IC50 assay, fluorescent-based with CMNPC substrate. The data set is classed as biochemical. Here is the method: sEH inhibition IC50 values for the compounds presented herein can be assayed by a recombinant affinity assay using purified sEHs, from human, mouse or rat, in a fluorescent-based assay.
For the recombinant affinity assay, purified sEHs (human, mouse and rat) were used in a fluorescent-based assay to determine IC50 values. […] These IC50 values were calculated from at least three separate runs, each in triplicate, to obtain the statistics herein, e.g., standard deviation.

The test system of the next data set is HepG2 cells. Put plainly: HepG2 cell viability analysis (MTT). The data set is classed as cell-based. As to conditions: Homo sapiens, HepG2; MTT after 24 hours of incubation. The protocol:
Cells were plated at 10,000 cell per well in 96-well plates and allowed to attach overnight under the growth conditions described above. […] These compounds were dissolved in 100% DMSO and diluted with EMEM to the desired concentration of 0.1 μM, 1.0 μM, 10 μM, 25 μM, and 50 μM, with a final DMSO concentration of 0.1% for all cell-based in vitro studies. All studies included DMSO as a solvent control. Cell viability was determined using the MTT Cell Viability Assay Kit from ATCC according to manufacturer's instructions. The 96-well plates were measure at 570 nm using SpectroMax 190 plate reader (Molecular Devices, Sunnyvale, Calif.). […] Each concentration was performed in triplicate per 96-well plate and EC50 data are presented as the mean±standard deviation from at least 3 separate experiments performed on separate days.

The next data set relates to LPS induced allodynia. Put plainly: Von Frey mechanical nociceptive assay, LPS induced model of inflammatory pain. As to conditions: male SD rats, 10 mg/kg s.c. 60 minutes before intraplantar LPS, tested until 6 hours post LPS. In kind it is in vivo. The protocol: In vivo anti-allodynic effects of the COX-2/sEH dual inhibitors provided herein was assayed. An LPS induced model of inflammatory pain was used to compare the pain reducing activity of the COX-2/sEH dual inhibitors to combination and individual therapies.
Rats weighing approximately 250-300 grams are brought to the testing apparatus and allowed to acclimate for 30 minutes. After 30 minutes the rats are tested with a von Frey aesthesiometer for their non-treated baseline withdrawal latency to mechanical stimulation. The von Frey apparatus is a raised metal mesh platform that has clear acrylic chambers to enclose rats but allow them to move freely. A rigid tip von Frey probe is used to probe the plantar surface of the rat hind paw though the mesh floor to elicit a withdrawal response. The measures recorded are grams of force applied to the hind paw required to elicit a withdrawal. The pretreatment baseline score is considered the pain-free baseline (BL) and is assigned 100% for further response calculations. […] The measures are then calculated as a percent of the pretreatment baseline score.

Data set [1] is described as follows: Pharmacokinetics in mice by oral cassette dosing. In kind it is in vivo. As to conditions: oral cassette dosing at 5 mg/kg, blood.
Procedure: All the animal experiments were performed according to protocols approved by the Animal Use and Care Committee of University of California, Davis. […] Each cassette was orally administered to 4 mice at a dose of 5 mg/kg in 120-150 μl of vehicle depending on animal weight. […] The instrument was equipped with a linear ion trap and a Turbo V ion source and was operated in negative ion MRM mode. […] This was maintained for 3 min, then the gradient was returned to 30% solvent B in 2 min. The flow rate was 0.4 mL/min. The injection volume was 10 μL and the samples were kept at 4° C. in the auto sampler.
The next data set concerns the target T4, 5-LOX (Homo sapiens, UniProt P09917).
T4 sequence (P09917 1-674): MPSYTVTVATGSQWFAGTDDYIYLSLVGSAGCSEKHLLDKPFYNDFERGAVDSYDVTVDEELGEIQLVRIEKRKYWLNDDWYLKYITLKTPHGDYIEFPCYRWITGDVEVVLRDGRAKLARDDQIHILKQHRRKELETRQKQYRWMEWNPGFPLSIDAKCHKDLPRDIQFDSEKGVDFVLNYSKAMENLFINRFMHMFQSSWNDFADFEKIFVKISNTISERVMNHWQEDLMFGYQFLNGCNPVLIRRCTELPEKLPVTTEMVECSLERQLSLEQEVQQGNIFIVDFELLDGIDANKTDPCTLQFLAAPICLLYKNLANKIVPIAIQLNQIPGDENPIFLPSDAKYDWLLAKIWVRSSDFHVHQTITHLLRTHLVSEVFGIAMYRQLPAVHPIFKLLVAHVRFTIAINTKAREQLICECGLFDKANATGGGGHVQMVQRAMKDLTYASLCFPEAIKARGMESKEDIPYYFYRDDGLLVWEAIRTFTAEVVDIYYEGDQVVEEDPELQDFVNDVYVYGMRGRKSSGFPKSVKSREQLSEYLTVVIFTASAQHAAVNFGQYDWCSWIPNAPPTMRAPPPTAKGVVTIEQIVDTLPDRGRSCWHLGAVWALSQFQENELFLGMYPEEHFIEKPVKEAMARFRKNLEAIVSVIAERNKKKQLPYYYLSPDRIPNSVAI
Nature of the data set: Potency against 5-LOX. In kind it is biochemical. As to conditions: compared with celecoxib.

Data set [2] in a line: Pharmacokinetics in rats by oral administration.
[3] abbreviates: human recombinant COX-2, triplicate average.
Where [4] appears, read: rats, oral administration at 1 mg/kg (n = 4), blood.

As to `Cc1ccc(-c2cc(CCCNC(=O)Nc3cccc(C(F)(F)F)c3)nn2-c2ccc(S(N)(=O)=O)cc2)cc1` [Compound 21c, 4-(5-p-Tolyl-3-{3-[3-(3-trifluoromethyl-phenyl)-ureido]-propyl}-pyrazol-1-yl)-benzenesulfonamide], at human recombinant COX-2 (compared to compound 21b), the “Diminished COX-2 inhibition” value is listed as 3 fold. Also, the inhibition at 100 µM at ovine COX-1 came out at 12.1%. Further, on human sEH (compared to compound 21b), the “Diminished sEH inhibition” value came out at 3 fold.
For `Cc1ccc(-c2cc(C(F)(F)F)nn2-c2ccc(S(N)(=O)=O)cc2)cc1` [Celecoxib, celecoxib, reference compound], the EC50 in the data set with HepG2 cells came to 20 ± 4 µM.
Regarding `O=C(NC1CCC(Oc2ccc(C(=O)O)cc2)CC1)NC12CC3CC(CC(C3)C1)C2` (centres unmarked) [t-AUCB, reference compound], the “COX-1 (% inhibition)” value on ovine COX-1 (ovine COX-1, % inhibition at 100 μM concentration) amounted to 25.2%. The “Anti-allodynic effect, von Frey paw withdrawal, in words” value in the data set with LPS induced allodynia was “slight antihyperalgesic effect; also recorded: limited effect”.
`NS(=O)(=O)c1ccc(-n2nc(CCCNC(=O)Nc3cccc(C(F)(F)F)c3)cc2-c2ccccc2)cc1` [Compound 21b, 4-(5-Phenyl-3-{3-[3-(3-trifluoromethyl-phenyl)-ureido]-propyl}-pyrazol-1-yl)-benzenesulfonamide]: the IC50 on human recombinant COX-2 (setting [3]) stood at 0.71 µM. For the same compound, the IC50 on human recombinant COX-2 (text of b131, unit inferred) worked out at 0.71 µM. Also, on ovine COX-1, the IC50 is over 100 µM and the inhibition at 100 µM is 27.2%. Moreover, in data set [1], the AUC is 0.035 µM·h, the peak level (Cmax) was 19 nM, the Tmax amounted to 0.5 h and the t1/2 stood at 1.0 h. Also, on human sEH (compared to compound 11g), the “Improvement of sEH inhibition” value is reported as 20 fold. The “Potency against 5-LOX, in words” value on 5-LOX is listed as “comparable with celecoxib”.
In data set [2] (male, Sprague-Dawley, rat, whole blood, po, 1 mg/kg), `NS(=O)(=O)c1ccc(-n2nc(CCCNC(=O)Nc3ccc(OC(F)(F)F)cc3)cc2-c2ccccc2)cc1` [Compound 21j, 4-(5-Phenyl-3-{3-[3-(4-trifluoromethoxy-phenyl)-ureido]-propyl}-pyrazol-1-yl)-benzenesulfonamide] had a half-life of 11.6 ± 5.6 h. Further, in data set [2] (setting [4]), the AUC amounted to 1.23 ± 0.521 µM·h, the highest level (Cmax) was 180 ± 71 nM and the Tmax was determined as 1.0 ± 0.7 h. Further, on human recombinant COX-2 (setting [3]), the IC50 was determined as 0.92 µM. Also, on ovine COX-1, the IC50 is over 100 µM and the inhibition at 100 µM amounted to 13.8%. Further, in data set [1], the AUC stood at 1.335 µM·h, the Cmax was determined as 290 nM, the Tmax is given as 0.8 h and the t1/2 came to 2.4 h. Further, the “Potency against 5-LOX, in words” value at 5-LOX was “comparable with celecoxib”. In addition, the EC50 in the data set with HepG2 cells was found to be 10 ± 2 µM.
